Reference: patent US20170280722A1, “COMPOSITIONS AND METHODS FOR CONTROL OF SAND FLIES AND OTHER BLOOD SUCKING INSECTS” (GENESIS LABORATORIES, INC., priority 2010, published 2017)
“And” between values parts separate entries of the source, which are not always exact repeats. Equal values may be shown once.

Experiments:
Type in all cases: in vivo
[1] = Cattle dosing, observation for adverse effects; conditions: 0.5, 1.0, 2.0, and 4.0 mg/kg body weight, single oral dose
Description: (§1) The test substance was given to the cattle orally as a single application. The oral treatment was by hand. Because the oral treatment was delivered in capsule form the dosage was very precise.
The observation period can be extended, if necessary based on drug persistence data and residue analysis. The first day of dose application was designated as day 0.
(§2) The four dose levels of fipronil for the treatment groups used in this study were as follows: 0.5, 1.0, 2.0 and 4.0 mg/kg. These were weighed with an analytical balance to the nearest 0.01 g and presented in gelatin capsules.
Body weights were recorded individually for all animals during randomization, at the beginning of each week (Monday) during the study period, and at the termination of the study.

adult P. argentipes = experiment: Adult sand fly bioassay, bloodfeeding on fipronil treated B. bengalensis; conditions: for Time after 1 hour exposure to 100% mortality of adult P. argentipes: bloodfeeding 20 days after treatment; for Adult sand fly mortality: across treatment groups
Description: The B. bengalensis fipronil study was conducted in two portions. In the first of the two segments, three randomly selected B. bengalensis were offered a fipronil (250 ppm) treated diet at 25 g daily. One rat served as control and was fed an untreated diet. In the second portion of the study, the remaining animals were randomly divided into two groups of two. Two individuals in the first group were offered 25 g of 100 ppm fipronil-treated feed each and two rats in the second group were each offered 25 g of 50 ppm fipronil-treated diet. One rat served as control and was fed an untreated diet.
Test animals were provided treated feed for two consecutive days. Diets were prepared by utilizing locally available poultry feed treated with technical grade fipronil to predetermined concentrations. Consumption was calculated daily, feed refilled to a predetermined level of 25 g, and feces cleared. At the end of the second day, treated feed was cleared, final consumption weighed, and feed replaced with untreated locally available poultry feed. Feces were collected, noted as day-1 post-treatment and properly stored for use in assays. Observation of test animals continued for twenty days post-treatment, with additional collection of feces for testing conducted 5, 10, and 20 days post-treatment. On days when fecal collection occurred, all newspaper/bedding was replaced at 0800 hours and feces collected at the end of the day for preservation. Collected feces were dried overnight at approximately 40° C., ground into a fine powder with a pestle and mortar and frozen at −20° C. until larval bioassays were initiated.
Adult sand fly bioassays were conducted 1, 5, 10 and 20 days post feed-through treatment of B. bengalensis. B. bengalensis were anesthetized with 15 units of ketamine (KetaJet 50, SterFil Laboratories Pvt. Ltd., Ankleshwar, India) via intramuscular injection. The belly of each rat was shaved using an electric razor and a mesh covered plastic capsule (20 mm diameter, 25 mm height) containing 20 adult female and 5 adult male P. argentipes was affixed to the shaved area with medical tape. The capsules had about 10 small holes burned into the top with a heated 24 gauge needle. Capsules remained in place for one hour, covered with a light cloth to maintain warmth and reduce light. At the end of one hour, the capsules were removed and observations for mortality conducted immediately, at 12 hours post-feeding, and every 24 hours thereafter for up to 5 days post-exposure. Partially fed sand flies were included in analyses as “bloodfed” specimens. Unfed sand flies were removed, and bloodfed sand flies were observed collectively by treatment group.

[2] = system: larval P. argentipes sand flies; experiment: Larval bioassay with feces of cattle given a single oral dose of fipronil; conditions: for Days after dosing to attain 100% mortality in sand flies: cattle
Description: as §1, §2
Collection of feces was performed at pre-dosing (day 0) and days 1, 3, 5, 7, 14, 21, and 28 following administration. Feces were sampled using arm length veterinarian sterile glove and about 50 g of feces was placed into individually label plastic jars. Samples were stored in a −20° C. freezer.
Larval bioassay jars were prepared using 48 mm, 100 g round Dibbi jars (Pearlpet, Pearl Polymers LTD., New Delhi, India). Jars were prepared by burning three small holes into the bottom of the container with a soldering iron. A thin layer (approximately 5 mm) of plaster of Paris was cast on the bottom and wetted to ensure humidity and softening of the test diet. To simplify mortality counts, the plaster was quartered, and each quadrant numbered one through four, using an ultra fine black marker. The lids of the jars were punctured with 15-20 small holes using a heated 24-gauge hypodermic needle.
Each bioassay jar was loaded with ten one to two day old first instar P. argentipes larvae. Approximately 5 mg treated feces were sprinkled evenly over the plaster. Larval bioassay samples were maintained in a controlled environment at approximately 24° C. with relative humidity maintained at approximately 80% through daily moistening of paper towels underneath the jars. Any observed mold or mites were removed during each day's observation. Each bioassay group included one control jar with larvae provided standard larval food consisting of rabbit feed, rabbit pellets, and dried chicken blood which were mixed, dried, composted, and crushed. Mortality counts of larvae were conducted every 24 hours post-exposure until 100% mortality or pupation was observed. Larvae were considered dead if no physical response was observed within 15 seconds of light stimulation with a blunt probe.

Compound: N#Cc1nn(-c2c(Cl)cc(C(F)(F)F)cc2Cl)c(N)c1[S+]([O-])C(F)(F)F (centres unmarked) [fipronil]
- Adverse effect from dosing the cattle [1]: no observed adverse effect
- Mortality of bloodfeeding adult P. argentipes (adult P. argentipes; bloodfed on rodents treated as much as 20 days previously, all treatment levels): 100%
- Time after 1 hour exposure to 100% mortality of adult P. argentipes (adult P. argentipes; 50 ppm): 5 days
- Time after 1 hour exposure to 100% mortality of adult P. argentipes (adult P. argentipes; 100 ppm): 3 days
- Time after 1 hour exposure to 100% mortality of adult P. argentipes (adult P. argentipes; 250 ppm): 4 days
- Adult sand fly mortality (adult P. argentipes; bloodfeeding on rodents 1 day after treatment): 100%
- Adult sand fly mortality (adult P. argentipes; bloodfeeding on rodents 5 days after treatment): 100%
- Time to death of adult sand flies (adult P. argentipes; day 1, all treatment groups (50 ppm, 100 ppm, and 250 ppm)): dead by the end of the one hour exposure period
- Time to 100% mortality of adult sand flies (adult P. argentipes; day 5, 50 ppm treatment group): 24 h
- Time to death of adult sand flies (adult P. argentipes; day 5, 250 and 100 ppm treatment groups): dead by the end of the one hour exposure period
- Larval mortality ([2]; all dose levels (0.5-4.0 mg/kg), over the 21-day study): 100%
- Day by which 100% sand fly mortality was attained ([2]; cattle feces of day 3 post-treatment, dose level not stated): ≤ 4 days
- Days after dosing to attain 100% mortality in sand flies ([2]; single oral dose 0.5 mg/kg, feces of day 1 after administration): 5.5 days
- Days after dosing to attain 100% mortality in sand flies ([2]; single oral dose 0.5 mg/kg, feces of day 3 after administration): 6.0 days
- Days after dosing to attain 100% mortality in sand flies ([2]; single oral dose 0.5 mg/kg, feces of day 5 after administration): 9.5 days
- Days after dosing to attain 100% mortality in sand flies ([2]; single oral dose 0.5 mg/kg, feces of day 14 after administration): 17 days
- Days after dosing to attain 100% mortality in sand flies ([2]; single oral dose 0.5 mg/kg, feces of day 21 after administration): 15.5 days
- Days after dosing to attain 100% mortality in sand flies ([2]; single oral dose 1.0 mg/kg, feces of day 1 after administration): 4.5 days
- Days after dosing to attain 100% mortality in sand flies ([2]; single oral dose 1.0 mg/kg, feces of day 3 after administration): 4.0 days
- Days after dosing to attain 100% mortality in sand flies ([2]; single oral dose 1.0 mg/kg, feces of day 5 after administration): 9.0 days
- Days after dosing to attain 100% mortality in sand flies ([2]; single oral dose 1.0 mg/kg, feces of day 14 after administration): 20 days
- Days after dosing to attain 100% mortality in sand flies ([2]; single oral dose 1.0 mg/kg, feces of day 21 after administration): 16.5 days
- Days after dosing to attain 100% mortality in sand flies ([2]; single oral dose 2.0 mg/kg, feces of day 1 after administration): 4.0 days
- Days after dosing to attain 100% mortality in sand flies ([2]; single oral dose 2.0 mg/kg, feces of day 3 after administration): 4.0 days
- Days after dosing to attain 100% mortality in sand flies ([2]; single oral dose 2.0 mg/kg, feces of day 5 after administration): 7.0 days
- Days after dosing to attain 100% mortality in sand flies ([2]; single oral dose 2.0 mg/kg, feces of day 14 after administration): 10 days
- Days after dosing to attain 100% mortality in sand flies ([2]; single oral dose 2.0 mg/kg, feces of day 21 after administration, 2 mg/kg): 12 days and 12.0 days
- Days after dosing to attain 100% mortality in sand flies ([2]; single oral dose 4.0 mg/kg, feces of day 1 after administration): 4.0 days
- Days after dosing to attain 100% mortality in sand flies ([2]; single oral dose 4.0 mg/kg, feces of day 3 after administration): 4.0 days
- Days after dosing to attain 100% mortality in sand flies ([2]; single oral dose 4.0 mg/kg, feces of day 5 after administration): 6.5 days
- Days after dosing to attain 100% mortality in sand flies ([2]; single oral dose 4.0 mg/kg, feces of day 14 after administration): 11 days
- Days after dosing to attain 100% mortality in sand flies ([2]; single oral dose 4.0 mg/kg, feces of day 21 after administration, 4 mg/kg): 10 days and 10.0 days
